Test system: women
Experiment: Effect of one intake of levonorgestrel within different stages of the menstrual cycle on women pregnancies
Assay type: in vivo
Details: levonorgestrel 1.5 mg single oral tablet, 1,117 women
Description: 1,117 women (aged 24.9+/−6.5 years) received levonorgestrel (1.5 mg) in form of a single oral tablet during different stages of their menstrual cycle.
The reference (day 0) is the ovulation. The fertile period extends from five days before the ovulation to one day after the ovulation.

C#C[C@]1(O)CC[C@H]2[C@@H]3CCC4=CC(=O)CC[C@@H]4[C@H]3CC[C@@]21CC [levonorgestrel, D-(−)-ethyl-13β ethynyl-17α hydroxy-17 gonene-4 one-3]
% pregnancies (failures) (menstrual cycle stage <−5 day (day 0 = ovulation)): 0%
% pregnancies (failures) (menstrual cycle stage >+1 day (day 0 = ovulation)): 44%
% pregnancies (failures) (menstrual cycle stage between −5 and +1 day (fertile period)): 56%

From patent publication US20130090318A1, “ONCE-A-MONTH METHOD OF CONTRACEPTION” (LABORATOIRE HRA-PHARMA, priority 2010, published 2013)
